Results taken from patent US8822451B2, “Modulators of ATP-binding cassette transporters” (Vertex Pharmaceuticals Incorporated, priority 2005, dated 2014).
pEC50: −log10 of the molar value.

Target: T1, […]F508-CFTR (Homo sapiens, UniProt P13569, DEL508-508)
T1 construct: expressed in transfected cells
Experiment: Assay results of Table 3: ΔF508-CFTR modulation, membrane potential optical assay (assay format not stated)
Format: cell-based
Conditions: NIH3T3 mouse fibroblasts stably expressing […]F508-CFTR (optical assays); for Efficacy: efficacy range; for pEC50: potency range
Procedure, shortened: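 Two VIPR II FRET voltage-dye formats in ΔF508-CFTR NIH3T3 cells yield EC50 and efficacy. Potentiator mode: 27° C.-corrected cells get compound in Cl⁻-free medium, forskolin 2-10 μM after 22 s (final Cl⁻ 28 mM). Corrector mode: compound 16 h at 37° C., activation with forskolin 10 μM plus genistein 20 μM.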

T1 sequence (P13569 with tags, fused parts or gaps DEL508-508): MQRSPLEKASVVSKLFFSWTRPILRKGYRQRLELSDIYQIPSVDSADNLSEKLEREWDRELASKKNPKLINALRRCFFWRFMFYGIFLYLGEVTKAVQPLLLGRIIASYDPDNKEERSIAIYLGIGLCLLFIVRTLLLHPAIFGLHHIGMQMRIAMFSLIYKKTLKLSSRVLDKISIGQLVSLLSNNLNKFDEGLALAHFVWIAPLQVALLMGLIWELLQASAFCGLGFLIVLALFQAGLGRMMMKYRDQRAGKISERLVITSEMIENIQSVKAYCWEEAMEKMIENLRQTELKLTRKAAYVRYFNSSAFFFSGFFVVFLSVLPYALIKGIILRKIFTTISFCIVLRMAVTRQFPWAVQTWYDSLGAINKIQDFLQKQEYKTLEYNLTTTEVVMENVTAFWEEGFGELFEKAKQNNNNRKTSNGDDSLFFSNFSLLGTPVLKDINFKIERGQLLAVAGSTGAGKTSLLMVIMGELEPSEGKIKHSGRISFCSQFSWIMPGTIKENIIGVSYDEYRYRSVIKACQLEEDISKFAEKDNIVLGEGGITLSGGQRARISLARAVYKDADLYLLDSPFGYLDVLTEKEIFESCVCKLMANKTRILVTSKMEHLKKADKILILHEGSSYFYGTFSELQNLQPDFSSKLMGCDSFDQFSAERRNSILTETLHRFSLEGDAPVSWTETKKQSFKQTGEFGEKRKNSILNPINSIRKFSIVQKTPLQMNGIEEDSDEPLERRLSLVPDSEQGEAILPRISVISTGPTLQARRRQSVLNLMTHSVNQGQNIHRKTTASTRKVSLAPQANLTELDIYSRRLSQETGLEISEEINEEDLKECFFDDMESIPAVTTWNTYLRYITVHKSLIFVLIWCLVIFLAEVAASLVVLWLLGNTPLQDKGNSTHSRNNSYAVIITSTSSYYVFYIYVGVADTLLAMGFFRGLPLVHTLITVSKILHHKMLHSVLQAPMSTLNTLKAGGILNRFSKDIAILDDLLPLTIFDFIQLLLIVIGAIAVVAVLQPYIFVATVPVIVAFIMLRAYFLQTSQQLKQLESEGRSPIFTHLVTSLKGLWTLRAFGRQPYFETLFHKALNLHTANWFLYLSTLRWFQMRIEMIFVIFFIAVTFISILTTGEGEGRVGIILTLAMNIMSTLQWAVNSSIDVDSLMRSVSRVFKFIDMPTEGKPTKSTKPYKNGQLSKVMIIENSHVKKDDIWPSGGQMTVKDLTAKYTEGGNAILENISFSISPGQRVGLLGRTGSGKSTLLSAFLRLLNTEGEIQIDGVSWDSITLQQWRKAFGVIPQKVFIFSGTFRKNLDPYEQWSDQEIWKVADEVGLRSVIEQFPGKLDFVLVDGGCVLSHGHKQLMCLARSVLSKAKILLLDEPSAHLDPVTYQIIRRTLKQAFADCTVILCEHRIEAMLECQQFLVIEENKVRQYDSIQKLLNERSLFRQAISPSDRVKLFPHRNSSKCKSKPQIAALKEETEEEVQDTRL

| pEC50 | Compound | Efficacy |
| --- | --- | --- |
| < 5.30 | NC(=O)c1cc(-c2csc3ccccc23)nc(N2CCCCC2)n1 [Compound 144] | ++ (++ corresponds to Efficacy between 100 and 50) |
| < 5.30 | NC(=O)c1cc(-c2ccccc2)nc(NC2CCCC2)n1 [Compound 112] | + (+ corresponds to Efficacy less than 50) |
| 5.30 to 6.00 | NC(=O)c1cc(-c2cc(Cl)ccc2Cl)nc(N2CCCCC2)n1 [Compound 202] | ++ (++ corresponds to Efficacy between 100 and 50) |
| < 5.30 | NC(=O)c1cc(-c2ccccc2)nc(N2CCC2)n1 [Compound 183] | ++ (++ corresponds to Efficacy between 100 and 50) |
| < 5.30 | CN(C)C(=O)c1cc(-c2ccccc2)nc(N2CCCCCC2)n1 [Compound 1] | ++ (++ corresponds to Efficacy between 100 and 50) |
| > 6.00 | CNC(=O)c1cc(-c2ccccc2)nc(NC)n1 [Compound 103] | + (+ corresponds to Efficacy less than 50) |
| 5.30 to 6.00 | COc1ccc(OC)c(-c2cc(C(N)=O)nc(N3CCCCC3)n2)c1 [Compound 8] | ++ (++ corresponds to Efficacy between 100 and 50) |
| > 6.00 | NC(=O)c1cc(-c2ccccc2)nc(N2CCCCCCC2)n1 [Compound 86] | ++ (++ corresponds to Efficacy between 100 and 50) |
| < 5.30 | N#Cc1cccc(-c2cc(C(N)=O)nc(N3CCCCC3)n2)c1 [Compound 111] | ++ (++ corresponds to Efficacy between 100 and 50) |
| 5.30 to 6.00 | COc1cccc(-c2cc(C(N)=O)nc(N3CCCCCC3)n2)c1 [Compound 161] | +++ (+++ corresponds to Efficacy greater than 100) |
| 5.30 to 6.00 | CC(C)OC(=O)c1cccc(-c2cc(C(N)=O)nc(N3CCCCC3)n2)c1 [Compound 17] | ++ (++ corresponds to Efficacy between 100 and 50) |
| 5.30 to 6.00 | NC(=O)c1cc(-c2ccccc2)nc(N2CC=CCC2)n1 [Compound 46] | +++ (+++ corresponds to Efficacy greater than 100) |
| < 5.30 | CNc1nc(C(N)=O)cc(-c2ccccc2)n1 [Compound 179] | + (+ corresponds to Efficacy less than 50) |
| < 5.30 | COc1ccc(-c2cc(C(N)=O)nc(N3CCCCC3)n2)cn1 [Compound 22] | ++ (++ corresponds to Efficacy between 100 and 50) |
| < 5.30 | NC(=O)c1cc(-c2ccccc2)nc(N2CCSC2)n1 [Compound 169] | +++ (+++ corresponds to Efficacy greater than 100) |
| 5.30 to 6.00 | CCOc1ccc(-c2cc(C(N)=O)nc(N3CCCCC3)n2)cc1 [Compound 198] | + (+ corresponds to Efficacy less than 50) |
| 5.30 to 6.00 | NC(=O)c1cc(-c2ccccc2)nc(N2CCSCC2)n1 [Compound 33] | +++ (+++ corresponds to Efficacy greater than 100) |
| 5.30 to 6.00 | CCN(CC)c1nc(C(=O)NC)cc(-c2ccccc2)n1 [Compound 47] | +++ (+++ corresponds to Efficacy greater than 100) |
| 5.30 to 6.00 | CNC(=O)c1cc(-c2ccccc2)nc(N2CCCCCC2)n1 [Compound 36] | + (+ corresponds to Efficacy less than 50) |
| < 5.30 | Cc1cc(-c2cc(C(N)=O)nc(N3CCCCC3)n2)ccc1F [Compound 175] | ++ (++ corresponds to Efficacy between 100 and 50) |
| < 5.30 | Cc1ccc(-c2cc(C(N)=O)nc(N3CCCCC3)n2)cc1C [Compound 40] | ++ (++ corresponds to Efficacy between 100 and 50) |

The remaining lines, values behind:

| Compound | pEC50 | Efficacy |
| --- | --- | --- |
| C#CCN(C)c1nc(C(N)=O)cc(-c2ccccc2)n1 [Compound 204] | 5.30 to 6.00 | ++ (++ corresponds to Efficacy between 100 and 50) |
| NC(=O)c1cc(-c2ccccc2)nc(-n2cccn2)n1 [Compound 57] | < 5.30 | + (+ corresponds to Efficacy less than 50) |
| CCN(CC)c1nc(C(N)=O)cc(-c2cc(F)cc(F)c2)n1 [Compound 151] | 5.30 to 6.00 | +++ (+++ corresponds to Efficacy greater than 100) |
| CN(CC#N)c1nc(C(N)=O)cc(-c2ccccc2)n1 [Compound 83] | < 5.30 | + (+ corresponds to Efficacy less than 50) |
| C=CCNc1nc(C(N)=O)cc(-c2cccc(OC)c2)n1 [Compound 48] | < 5.30 | ++ (++ corresponds to Efficacy between 100 and 50) |
| CCN(CC)c1nc(C(N)=O)cc(-c2ccc(S(=O)(=O)CC)cc2)n1 [Compound 155] | < 5.30 | ++ (++ corresponds to Efficacy between 100 and 50) |
| CCN(CC)c1nc(C(N)=O)cc(-c2c(OC)cccc2OC)n1 [Compound 108] | < 5.30 | ++ (++ corresponds to Efficacy between 100 and 50) |
| CCCCN(Cc1ccccc1)c1nc(C(N)=O)cc(-c2ccccc2)n1 [Compound 52] | 5.30 to 6.00 | ++ (++ corresponds to Efficacy between 100 and 50) |
| CCN(CC)c1nc(C(N)=O)cc(-c2cc(Cl)ccc2Cl)n1 [Compound 225] | > 6.00 | +++ (+++ corresponds to Efficacy greater than 100) |
| C#CCNc1nc(C(N)=O)cc(-c2cccc(OC)c2)n1 [Compound 145] | < 5.30 | ++ (++ corresponds to Efficacy between 100 and 50) |
| CCN(CC)c1nc(C(N)=O)cc(-c2ccc(OC)nc2)n1 [Compound 229] | 5.30 to 6.00 | ++ (++ corresponds to Efficacy between 100 and 50) |
| COc1ccc(S(=O)(=O)N2CCN(c3nc(C(N)=O)cc(-c4ccccc4)n3)CC2)cc1 [Compound 195] | < 5.30 | ++ (++ corresponds to Efficacy between 100 and 50) |
| CCCN(CC1CC1)c1nc(C(N)=O)cc(-c2ccccc2)n1 [Compound 87] | 5.30 to 6.00 | ++ (++ corresponds to Efficacy between 100 and 50) |
| CN(Cc1ccco1)c1nc(C(N)=O)cc(-c2ccccc2)n1 [Compound 162] | 5.30 to 6.00 | ++ (++ corresponds to Efficacy between 100 and 50) |
| NC(=O)c1cc(-c2ccccc2)nc(NCC2CC2)n1 [Compound 27] | < 5.30 | ++ (++ corresponds to Efficacy between 100 and 50) |
| CC(C)CCN(C)c1nc(C(N)=O)cc(-c2ccccc2)n1 [Compound 206] | 5.30 to 6.00 | ++ (++ corresponds to Efficacy between 100 and 50) |
| COc1cccc(-c2cc(C(N)=O)nc(N(C)C)n2)c1 [Compound 77] | < 5.30 | + (+ corresponds to Efficacy less than 50) |
| CCN(CC)c1nc(C(N)=O)cc(-c2cccc(C(=O)OC)c2)n1 [Compound 35] | > 6.00 | +++ (+++ corresponds to Efficacy greater than 100) |

| Compound | pEC50 | Efficacy |
| --- | --- | --- |
| CC(C)CCN(CCC(C)C)c1nc(C(N)=O)cc(-c2ccccc2)n1 [Compound 104] | 5.30 to 6.00 | + (+ corresponds to Efficacy less than 50) |
| CCN(CC)c1nc(C(N)=O)cc(-c2c(F)cccc2F)n1 [Compound 125] | > 6.00 | ++ (++ corresponds to Efficacy between 100 and 50) |
| C#CCNc1nc(C(N)=O)cc(-c2ccccc2)n1 [Compound 154] | < 5.30 | + (+ corresponds to Efficacy less than 50) |
| NC(=O)c1cc(-c2ccccc2)nc(N2CCC(n3c(=O)[nH]c4ccccc43)CC2)n1 [Compound 139] | < 5.30 | ++ (++ corresponds to Efficacy between 100 and 50) |
| COc1ccc(-c2cc(C(N)=O)nc(N3CC=CCC3)n2)cc1 [Compound 129] | < 5.30 | ++ (++ corresponds to Efficacy between 100 and 50) |
| CCN(CC)c1nc(C(N)=O)cc(-c2cc(F)ccc2OC)n1 [Compound 133] | > 6.00 | ++ (++ corresponds to Efficacy between 100 and 50) |
| CCN(CC)c1nc(C(N)=O)cc(-c2cccc(F)c2)n1 [Compound 160] | < 5.30 | ++ (++ corresponds to Efficacy between 100 and 50) |
| CC(=O)C1(c2ccccc2)CCN(c2nc(C(N)=O)cc(-c3ccccc3)n2)CC1 [Compound 45] | 5.30 to 6.00 | ++ (++ corresponds to Efficacy between 100 and 50) |
| NC(=O)c1cc(-c2ccccc2)nc(NCc2ccccc2)n1 [Compound 126] | < 5.30 | ++ (++ corresponds to Efficacy between 100 and 50) |
| C=CCN(C)c1nc(C(N)=O)cc(-c2ccccc2)n1 [Compound 14] | 5.30 to 6.00 | +++ (+++ corresponds to Efficacy greater than 100) |
| COc1cccc(-c2cc(C(N)=O)nc(NCc3ccco3)n2)c1 [Compound 173] | < 5.30 | ++ (++ corresponds to Efficacy between 100 and 50) |
| COc1cccc(-c2cc(C(N)=O)nc(NCC3CCCO3)n2)c1 (stereo not drawn) [Compound 80] | < 5.30 | + (+ corresponds to Efficacy less than 50) |
| CCCCCN(C)c1nc(C(N)=O)cc(-c2ccccc2)n1 [Compound 186] | 5.30 to 6.00 | +++ (+++ corresponds to Efficacy greater than 100) |
| CCNc1nc(C(N)=O)cc(-c2ccc(OC)cc2)n1 [Compound 102] | < 5.30 | ++ (++ corresponds to Efficacy between 100 and 50) |
| C=CCNc1nc(C(N)=O)cc(-c2ccccc2OC)n1 [Compound 178] | 5.30 to 6.00 | +++ (+++ corresponds to Efficacy greater than 100) |
| CCN(CC)c1nc(C(N)=O)cc(-c2cccc(C)c2)n1 [Compound 56] | 5.30 to 6.00 | +++ (+++ corresponds to Efficacy greater than 100) |
| NC(=O)c1cc(-c2ccccc2)nc(N2CCC(C(=O)c3ccc(Cl)cc3)CC2)n1 [Compound 28] | < 5.30 | ++ (++ corresponds to Efficacy between 100 and 50) |
| CCN(CC)c1nc(C(N)=O)cc(-c2ccc(C(C)C)cc2)n1 [Compound 55] | > 6.00 | ++ (++ corresponds to Efficacy between 100 and 50) |
